Measurements: patent US20050124638A1, “Benzimidazoles and analogs thereof as antivirals” (priority 2003, published 2005)
Where two headings read alike, the source gives them in different places.

Experiments:
[1] = system: HCV IRES stem IIa RNA target; test: Mass spectrometry based binding assay; conditions: for binding percentages of ligand to target: ligand 50 μM, IIa target 2.5 μM, Table 1
[2] = Single dose in vivo pharmacokinetic study; conditions: rats, single 3.0 mg/kg IV, mean; for clearance / Vd: rat, plasma; for Vd: read-out: Vdss
Experimental: A single dose pharmacokinetic study was performed to investigate the pharmacokinetics of representative compounds. Of particular interest was […] the ability of the compounds to accumulate in liver, which is the target tissue for HCV chemotherapy as it is the primary reservoir of virus. 3-4 rats per group were administered a single dose (3 mg/kg intravenously, IV or 6 mg/kg orally, PO). Blood samples were taken at 0.25, 0.5, 1, 2, 3, 4, 6, and 8 h timepoints, and pharmacokinetic parameters calculated. Both representative compounds were rapidly distributed to tissues, as evidenced by the high clearance rates and volumes of distribution, and low levels of excretion (ca 10% of total drug in urine and feces at 8 h). Major tissues were examined for presence of drug. […] The tissue accumulation for the IV dose is shown in FIG. 1, as a function of concentration and percent of total administered dose.

[3] = system: HCV RNA levels in Ntat2ANeo replicon containing cell line; test: Replicon assay (Ntat2ANeo replicon cells, quantitative RT-PCR of HCV RNA); type: cell-based; conditions: Hepatitis C virus; Table 8
female mice = test: Acute in vivo toxicity study; conditions: 5 or 45 mg/kg i.p. for 3 days
Experimental: In the study design, 3-4 female mice/group were dosed with 0, 5 or 45 mg/kg of IBIS00553642, IBIS000408094, or IBIS00405746 for 3 days (i.p.). Clinical signs, body weights, clinical pathology, organ weights, and histopathology endpoints were evaluated.
A single dose toxicity study was performed to investigate the toxicity of representative compounds. Briefly, 3-4 female mice per group were administered 0, 5, or 45 mg/kg drug (intraperitoneal) on consecutive days for 3 days. At the end of the study, mice were sacrificed, and clinical signs, body weights, clinical pathology, organ weights, and histopathology endpoints were evaluated. […] The gross findings at necropsy were minor and limited to discolorations in liver and kidney or large gallbladder in 4/18 mice (no dose response and unclear relationship to drug). […] There were no drug-related effects on clinical pathology.

MTT toxicity assay = type: cell-based
Excerpt: The color was quantified by spectrophotometric means. For each cell type a linear relationship between cell number and absorbance is established, enabling quantification of changes of proliferation.

[4] = Table 8, read-out: Kd to IIa target
[5] = constrained vs unconstrained N1/N2 side chains, read-out: KD

SMILES	IC50 [3] [µM]	Kd [1, 4] [µM]	CC50 at 48 h (MTT toxicity assay) [µM]	further results
Nc1nc2ccccc2n1CCCN1CCCC1				binding percentages of ligand to target [1]: 15%
CCN(CC)CCn1c(N)nc2ccccc21				binding percentages of ligand to target [1]: 15%
CN(C)CCn1c(N)nc2ccccc21				binding percentages of ligand to target [1]: 11%
Nc1nc2ccccc2n1CCOc1ccccc1				binding percentages of ligand to target [1]: 6%
COc1ccc2nc(N)n(CCCN(C)C)c2c1				MS Target Selectivity ([1]; Table 2): ˜10; Kd ([1]; Table 2, read-out: Est. KD): ~40 µM
CN(C)CCCOc1ccc2nc(N)[nH]c2c1				MS Target Selectivity ([1]; Table 3): ˜2; Kd ([1]; Table 3, read-out: Est. KD): > 500 µM
CN(C)CCCOc1ccc2ncn(CCCN(C)C)c2c1				MS Target Selectivity ([1]; Table 3): 1; Kd ([1]; Table 3, read-out: Est. KD): > 500 µM
CN(C)CCCn1c(N)nc2ccc(OCCCN(C)Cc3ccco3)cc21				clearance [2]: 34.5 mL/min/kg; Vd [2]: 82.8 L/kg; % AUC Extrap [2]: 80.0%; AUC [2]: 311 ng·h/mL; AUC Extrap [2]: 1928 ng·h/mL; Co [2]: 201 ng/mL; MRT [2]: 3.1 h; T1/2 [2]: 37.5 h
CN(C)CCCOc1ccc2nc(N)n(CCCN(C)C)c2c1 [IBIS00403514]	37.1	3.8		
CN(C)CCCn1c(N)nc2ccc(OCCCN[C@@H]3CCN(Cc4ccccc4)C3)cc21 [IBIS00405746]				Clinical Signs (female mice): No significant toxicity at 5 mg/kg dose.
CN(CCCOc1ccc2nc(N)n(CCCN3CCCCC3)c2c1)Cc1ccc[nH]1 [IBIS00408094]				Clinical Signs (female mice): No significant toxicity at 5 and 45 mg/kg doses.
CN(C)CCCOc1ccc2nc3n(c2c1)CC(CN(C)C)CN3 (stereo not shown) [IBIS00408169]	28.7	4.5	> 100	
CN(C)CC1CNc2nc3ccc(OCCCNC4CCN(Cc5ccccc5)CC4)cc3n2C1 (stereo not shown) [IBIS00528633]	13.7	4	> 100	
CN(C)CC1CNc2nc3ccc(OCCCN4CCC(N5CCCC5)CC4)cc3n2C1 (stereo not shown) [IBIS00528634]	19.2	1.7	> 100	
CN(C)CC1CNc2nc3ccc(OCCCN[C@@H]4CCN(Cc5ccccc5)C4)cc3n2C1 (stereo partly shown) [IBIS00528635]	42.3	1	90	
CN(C)CC1CNc2nc3ccc(OCCCN(C)Cc4ccc[nH]4)cc3n2C1 (stereo not shown) [IBIS00528636]	27.2	1.2	90	
CN(C)CC1CNc2nc3ccc(OCCCN(C)Cc4ccccn4)cc3n2C1 (stereo not shown) [IBIS00528637]	14.2	0.56	> 100	
CC1CCCCN1CCCn1c(N)nc2ccc(OCCCN(C)Cc3ccccn3)cc21 (stereo not shown) [IBIS00553642]				Clinical Signs (female mice): No significant toxicity at 5 and 45 mg/kg doses.
CN(C)CCCOc1ccc2nc3n(c2c1)CC(CN1CCCCC1)CN3 (stereo not shown) [IBIS00554807]	14.1	3.4	> 100	
CN(CCCOc1ccc2nc3n(c2c1)CC(CN1CCCCC1)CN3)Cc1ccccn1 (stereo not shown) [IBIS00554811]	24	4.3	> 100	
CN(CCCOc1ccc2nc3n(c2c1)CC(CN1CCCCC1)CN3)Cc1ccco1 (stereo not shown) [IBIS00554813]	18.2	5.1	> 100	
CN(C)CC1CNc2nc3ccc(OCCCN(C)Cc4cccn4C)cc3n2C1 (stereo not shown) [IBIS00554842]	4	0.78	50	
CN(C)CC1CNc2nc3ccc(OCCCN(C)Cc4ncc[nH]4)cc3n2C1 (stereo not shown) [IBIS00554843]	> 100	3.1	> 100	
CN(C)CC1CNc2nc3ccc(OCCCN(C)Cc4ccco4)cc3n2C1 (stereo not shown) [IBIS00554844]	4.9	1.7	> 100	

SMILES	IC50 [3] [µM]	Kd [1, 4] [µM]	CC50 at 48 h (MTT toxicity assay) [µM]	further results
CN(C)CC1CNc2nc3ccc(OCCCN(C)Cc4cccs4)cc3n2C1 (stereo not shown) [IBIS00554886]	15.3	5	> 100	
CN(C)CC1CNc2nc3ccc(OCCCN(C)Cc4nccs4)cc3n2C1 (stereo not shown) [IBIS00554888]	> 100	8.8	> 100	
CN(C)CC1CNc2nc3ccc(OCCCN(C)Cc4ccc(CO)o4)cc3n2C1 (stereo not shown) [IBIS00554889]	57.9	5.9	> 100	
CN(C)CC1CNc2nc3ccc(OCCCN(C)Cc4cccc(Br)n4)cc3n2C1 (stereo not shown) [IBIS00560002]	11.6	110	> 100	
CN(C)CCCn1c(N)nc2ccc3c(c21)CC(CN(C)C)CO3 (stereo not shown) [IBIS00560020]	9	2.2	> 100	
CN(C)CCCn1c(N)nc2ccc3c(c21)CC(CCN)CO3 (stereo not shown) [IBIS00560024]	> 100	3.4	> 100	
CN(C)CCCn1c(N)nc2ccc3c(c21)CC(CN(C)CCN(C)C)CO3 (stereo not shown) [IBIS00560025]	71.2	9.4	> 100	
CN(C)CCCn1c(N)nc2ccc3c(c21)CC(CN(C)Cc1cccn1C)CO3 (stereo not shown) [IBIS00560031]	21.7	18	> 100	
CN(C)CCCn1c(N)nc2ccc3c(c21)CC(CN(C)C)O3 (stereo not shown) [IBIS00560047]			> 100	
CN(C)CCCn1c(N)nc2ccc3c(c21)CC(CN(C)CCN(C)C)O3 (stereo not shown) [IBIS00560048]	23	11	> 100	
CNCC1COc2ccc3nc(N)n(CCCN(C)C)c3c2C1 (stereo not shown) [IBIS00560100]	51.6	3.1	> 100	
CN(C)CCCn1c(N)nc2ccc3c(c21)CC(CN(C)C(=N)N)CO3 (stereo not shown) [IBIS00560101]	> 100	5.5	> 100	
CN(C)CCCn1c(N)nc2ccc3c(c21)CC(CN(C)Cc1cccn1C)O3 (stereo not shown) [IBIS00560102]	3.3	10.4	> 100	
CN(C)CCCn1c(N)nc2ccc3c(c21)CC(CN)CO3 (stereo not shown) [IBIS00560121]	42.7	17.2	> 100	
CN(C)CCCn1c(N)nc2ccc3c(c21)CC(CN(C)Cc1ncc[nH]1)CO3 (stereo not shown) [IBIS00560122]	> 100	19.6	> 100	
CN(C)CC1COc2ccc3nc4n(c3c2C1)CC(CN(C)C)CN4 (stereo not shown) [IBIS00560146]	5.4	21.1	> 100	
CN(C)CCCn1c(N)nc2ccccc21 [drawing 62]				binding percentages of ligand to target [1]: 56% binding
CN(C)CCCn1c(N)nc2ccccc21 [drawing 67]				MS Target Selectivity ([1]; Table 2): ˜3; Kd ([1]; Table 2, read-out: Est. KD): ~100 µM
CN(C)CCCOc1ccc2nc(N)n(CCCN(C)C)c2c1 [drawing 69]				MS Target Selectivity ([1]; Table 2): ˜15; Kd ([1]; Table 2, read-out: Est. KD): ~10 µM
CN(C)CCCOc1ccc2nc(N)n(CCCN(C)C)c2c1 [drawing 70]				MS Target Selectivity ([1]; Table 3): ˜15; Kd ([1]; Table 3, read-out: Est. KD): ~10 µM
CN(C)CCCn1c(N)nc2ccccc21 [drawing 71]				MS Target Selectivity ([1]; Table 3): ˜3; Kd ([1]; Table 3, read-out: Est. KD): ~100 µM
CN(C)CCCOc1ccc2nc3n(c2c1)CC(CN(C)C)CN3 (stereo not shown) [drawing 124]				Kd [1, 5]: 0.67 µM
CN(C)CCCOc1ccc2nc(N)n(CCCN(C)C)c2c1 [drawing 125]				Kd [1, 5]: 3.6 µM
CN(C)CC1CNc2nc3ccc(OCCCN(C)Cc4ccccn4)cc3n2C1 (stereo not shown) [drawing 164]				clearance [2]: 160 mL/min/kg; Vd [2]: 137 L/kg; % AUC Extrap [2]: 47%; AUC [2]: 165 ng·h/mL; AUC Extrap [2]: 320 ng·h/mL; Co [2]: 219 ng/mL; MRT [2]: 2 h; T1/2 [2]: 14 h
